From patent publication US20090143328A1, “Method of Treating Cancer by Administration of Topical Active Corticosteroids” (priority 2001, published 2009)

Key:
Type in all cases: in vivo, human
[1] = Safety assessment in the same trial; conditions: oral BDP 2 mg four times daily for 50 days plus prednisone induction vs placebo
Source text: (§1) Safety was primarily assessed based on the following: 1) cumulative systemic corticosteroid exposure, 2) the incidence and degree of HPA axis suppression in patients who had not experienced treatment failure by study day 50, 3) rates of treatment-emergent adverse events, and 4) the overall survival rate 200 days post-transplant.
(§2) The primary analysis of the primary and secondary efficacy endpoints was based on the intent-to-treat principle. The analysis of the primary efficacy endpoint was based on the Kaplan-Meier method and log-rank test stratified by source of allograft. Hypothesis tests of the primary and secondary efficacy endpoints were performed using a two-sided significance level of 0.05. No adjustments were made to the significance level for inferential tests of the secondary efficacy endpoints. All patients who received at least one dose of BDP or placebo were included in the assessment of safety.

[2] = system: graft versus leukemia effect (GVL); experiment: Overall survival 200 days post-transplant in the same trial (Kaplan-Meier, Cox proportional hazards models)
Procedure: (§3) A randomized, prospective, double blind, placebo controlled, multi-center pivotal trial was conducted to evaluate beclomethasone dipropionate (BDP) as a treatment of cancer by enhancing the graft versus leukemia effect (GVL) while controlling graft versus host disease (GVHD) following hematopoietic stem cell transplant in blood-borne cancer patients. The trial was divided into two phases, the purpose was to monitor short term effectiveness of BDP to control graft versus host disease in the first phase and the second phase was to assess the effect of the drug treatment on long term survival due to recurrence of hematologic malignancy or other causes of death.
(§4) To minimize the exposure of patients to long term exposure to systemic corticosteroids (prednisone or prednisolone), which are used as the standard of care to prevent or treat symptoms of graft versus host disease in conjunction with other immunosuppressive drugs, patients were treated with an oral formulation of BDP. BDP was formulated as two separate oral dosage forms an immediate release (IR) tablet and an enteric coated (EC) tablet. 129 patients were enrolled and 67 patients were randomized to placebo and 62 to BDP, Patients were at least 10 days post allogeneic hematopoietic cell transplantation, had gastrointestinal symptoms consistent with Grade II GVHD, and had endoscopic evidence of GVHD. The diagnosis of GVHD was confirmed by biopsy of the intestine (esophagus, stomach, small intestine, or colon) or skin. After being diagnosed with GVHD, patients were started on standard prednisone therapy. Patients were administered 2 mg/kg/day or 1 mg/kg/day for 10 days as a starting dose. After 10 days at this initial dose, prednisone was tapered over 7 days, after which the patients were maintained on a maintenance physiologic replacement dose of prednisone of 0.0625 mg/kg/day or 0.125 mg/kg/day. Concurrently, patients received BDP at a dose of 2 mg four times daily, for a total dose of 8 mg, or placebo for a maximum of 50 days.
as §1, §2
Based on a univariate time-dependent Cox proportional hazards model, the risk of mortality during this period was 68% lower following the initiation of treatment with BDP when compared to no treatment (hazard ratio 0.32; 95% CI: 0.12, 0.87; p=0.0252). A multivariate Cox model was used to evaluate the effect of BDP while simultaneously accounting for selected competing causes of mortality after hematopoietic cell transplant. The competing causes of mortality included the subject's age and gender, intensity of the conditioning regimen (myeloablative, non-myeloablative), primary diagnosis, transplant source (bone marrow, peripheral blood stem cells), and degree of HLA match, with greater benefit seen in the patients receiving non-myeloabaltive pre-conditioning.
The hazard ratio for each variable was estimated from a multivariate Cox proportional hazards model.

[3] = system: graft versus host disease (GVHD); experiment: Randomized, double blind, placebo controlled trial of oral BDP: time to treatment failure (GVHD) through study days 50 and 80
Procedure: as §3, §4
Patients were monitored at clinic visits for evidence of increase in symptoms of GVHD (primary treatment failure). The primary efficacy endpoint was the time to treatment failure through study day 50. Treatment failure was defined as a worsening or recurrence of GVHD of such degree as to require an increase in immunosuppressive therapy. A subject was defined as a treatment failure if the patient required prednisone or equivalent IV corticosteroids at doses higher than that specified in the protocol, in response to uncontrolled signs or symptoms of GVHD; or required additional immunosuppressant medications other than those permitted by the protocol in response to uncontrolled signs or symptoms of GVHD. The time to treatment failure was calculated as the number of days elapsed between the randomization date and the date on which the subject was first identified as a treatment failure by the investigator.
Secondary efficacy endpoints included: 1) the time to treatment failure through study day 80, 2) the proportion of subjects who experienced treatment failure by study days 10, 30, 50, 60, and 80, and 3) Karnofsky performance status scores.
as §2
The hazard ratio was estimated from a univariate Cox proportional hazards model. Placebo serves as the reference group.

[4] = Kaplan-Meier estimate, fraction, all randomized subjects

CCC(=O)OCC(=O)[C@@]1(OC(=O)CC)[C@@H](C)C[C@H]2[C@@H]3CCC4=CC(=O)C=C[C@]4(C)[C@@]3(Cl)[C@@H](O)C[C@@]21C [BDP, beclomethasone dipropionate]
Clinically significant toxicity [1]: without an increase in clinically significant toxicity | Relative reduction in mortality at 200 days post transplant ([2]; 200 days post transplant): 69% | Deaths with relapse of the underlying malignancy as primary cause, number of patients ([2]; 200 days post-transplant): 2 patients | Deaths with relapse of the underlying malignancy as primary cause, share of group ([2]; 200 days post-transplant): 3% | Hazard ratio, mortality, univariate time-dependent Cox model ([2]; 200 days post-transplant, BDP vs no treatment): 0.32 | Overall survival rate 200 days post-transplant ([2]; Kaplan-Meier estimate, fraction): 0.91 | Coefficient (bi), multivariate proportional hazards model for overall survival 200 days post-transplant ([2]; safety population): −1.155 | HR [exp(bi)], duration of overall survival 200 days post-transplant, multivariate Cox model ([2]; safety population, adjusted for competing causes of mortality): 0.32 | Lowering of risk of mortality following initiation of BDP compared to no treatment ([2]; univariate time-dependent Cox proportional hazards model, 200 days post-transplant): 68% | Reduction of risk of treatment failure relative to placebo, 50-day study treatment period ([3]; 50-day study treatment period): 37% | Increase of median time to treatment failure compared to placebo ([3]; 80-day study period): more than 28 days | Reduction of risk of treatment failure relative to placebo, entire 80-day study period ([3]; 80-day study period): 44% | Treatment failure rate by Study Day 50 [3, 4]: 0.31 | Treatment failure rate by Study Day 80 [3, 4]: 0.39 | Median time to treatment failure (95% CI), through Study Day 50 ([3]; all randomized subjects): Not achieved | Median time to treatment failure (95% CI), through Study Day 80 ([3]; all randomized subjects): Not achieved | Patients who met the treatment failure endpoint during the first 10 days of study treatment ([3]; first 10 days, all patients on high-dose prednisone): Eight | Number with treatment failure, through Study Day 50 ([3]; intent-to-treat, BDP N = 62, 2 mg four times daily oral, with prednisone induction and taper): 18 | Number with treatment failure, through Study Day 80 ([3]; intent-to-treat, BDP N = 62, includes 30-day post-treatment observation period): 22 | Share of the total number of treatment failures that occurred within the first 10 days of randomization ([3]; prior to the prednisone taper): 44% | Cumulative treatment failure rate by study day 50 ([3]; study day 50): 31% | Cumulative treatment failure rate by study day 80 ([3]; study day 80): 39%
